Source: US9133236B2, “Connective tissue stimulating peptides” (priority 2002, dated 2015)
Where no end group is shown, it is not given here. [ ]: non-standard residue; d: D form. Hyp = O=C(O)[C@@H]1C[C@@H](O)CN1

Tests used:
[1] = system: rat bone marrow derived osteoblasts; assay: Cell bound alkaline phosphatase, bone marrow derived osteoblasts; format: cell-based
Description: (§1) BCSP1 was tested in three assays to understand the mechanism of bone stimulation by the peptide. Dose ranges in the microgram range were used to generate dose response curves. All assays used primary rat osteoblast cultures from bone marrow or calvaria.
(§2) Osteoblast proliferation was accessed using a DNA based assay which measures bromodeoxyuridine (BrdU) incorporation. Differentiation of osteoblasts was determined using the mid to late stage bone marker Alkaline Phosphatase. Late stage differentiation and mineralization was determined using a Bone Nodule formation assay (calvaria only).
(§3) Cell bound alkaline phosphatase from cell lysates of rat bone marrow derived osteoblasts and rat calvaria derived osteoblasts. BCSP1 was provided at a dose range of 100 μg/ml to 1 μg/mL. Cells were cultured for 3 days prior to a 48 hr exposure to the peptide.

[2] = system: tibia; assay: Periosteal tibia injection, DEXA bone mineral density and content; format: in vivo, male Wistar rats; details: 7 days post injection; for changes in BMC (bone mineral content) / changes in BMD (bone mineral density): treated whole tibia in all regions, DEXA, SKELITE powder carrier
Description: BCSP1 peptide and BCSP4 peptide were tested at four dose levels, 0.05, 0.5, 1.0 & 5.0 mg/rat or vehicle, n=6 per dose. Sixty male Wistar rats, weighing 90-110 grams, were randomized into two groups, ear tagged and left undisturbed for 1 week prior to the procedure. Food and water are administered ad libitum. Animals weighed 150-190 grams at time of injection. Group 1 received injections of BCSP4 peptide on day 8 of acclimation. Group 2 received injections of BCSP1 peptide on day 9 of acclimation. Dissections were conducted on respective days, 7 days post injection.
The peptides were dissolved in sterile water at 0.05-5 mgs per 100 microliter volume, added to 0.5 mg of a dry synthetic biomaterial compound (SKELITE™) powder and lyophilized onto the carrier. Samples are resuspended in 100 microliters of sterile saline for injection. Delivery of the test compound was made under a general anaesthetic of Isofluorane with oxygen. Using a 0.5 cc insulin syringe fitted with a 28G1/2″ needle, the peptides were deposited onto the periosteal surface of the right medial tibia surface proximal to the knee under the Tibialis cranialis muscle group. Control animals are injected with saline vehicle and a synthetic biomaterial compound (SKELITE™) carrier.
Animals were euthanized with carbon dioxide and dissected to remove the treated right tibia and contra-lateral control limb, 7 days post injection. Muscle and soft connective tissue is dissected away prior to fixation in 70% ethanol.
Each tibia set was scanned as a pair for bone mineral density (BMD) and bone mineral content (BMC) on a Norland Eclipse DEXA scanner in small subject mode. Percent increases in local BMD (FIG. 5) were calculated against the untreated contra-lateral limb. […] This increase in physical size reduces the overall percentage increase in BMD (BMD=BMC/cm^2). Each tibia was analyzed in 3 contiguous regions, proximal, medial and distal as well as whole tibia measurements. Comparisons and statistical assessment of dose versus vehicle were conducted for each peptide for bone forming activity using a standard student t-test.

[3] = system: rat calvaria cultures; assay: Bone nodule formation assay, alizarin red staining; format: cell-based; details: 10 days
Description: as §1, §2
Rat calvaria cultures were maintained for 10 days in the presence of BCSP1 at a dose range of 1 ng/ml to 100 μg/ml with dosing provided at each fluid change. Mineralized bone nodules were detected by staining with alizarin red. Image analysis was conducted with an Alpha Imager 2000™ to count and quantify nodule area. […] Increased alkaline phosphatase would lead to increases in total mineralized area.

[4] = system: osteoblast cultures derived from rat calvaria; assay: Osteoblast proliferation, BrdU incorporation, calvaria derived cultures; format: cell-based; details: dose range of 1.3-6.4 ng/ml; 24 hr exposure
Description: as §1, §2
Cells were cultured for four days prior to a 24 hr exposure to the peptide at a dose range from 100 μg/ml to 1.3 ng/ml of peptide (FIG. 12).

[5] = system: osteoblast cultures derived from rat bone marrow; assay: Osteoblast proliferation, BrdU incorporation, bone marrow derived cultures; format: cell-based; details: 24 hr exposure
Description: as §1, §2
Cells were cultured for four days prior to a 24 hr exposure to the peptide (FIG. 11).

[6] = system: human chondrocytes; assay: [3H] thymidine incorporation assay, human primary chondrocyte cultures; format: cell-based
Description: (§4) BCSP1 was tested in vitro to determine effect on bovine and human primary chondrocyte cultures using a [3H] thymidine incorporation assay. Cells were seeded at […] for human chondrocytes (96 well plate) and allowed to attach for 48 h (medium containing 10% fetal bovine serum (FBS). Pre-confluent cells were then treated in quaduplicate with BCSP1 (0, 10, 20 and 40 ng/ml for 48 hrs and with [3H]thymidine ([…]) for the last 24 hrs (medium containing 2% FBS). The culture medium used was Dulbecco's Modified Eagle Medium (DMEM) (Gibco, Cat. #23800) containing 200 units/ml Penicillin, 200 ug/ml Streptomycin and 10% FBS for growth and 2% FBS for dosing.

[7] = system: rat calvaria derived osteoblasts; assay: Cell bound alkaline phosphatase, calvaria derived osteoblasts; format: cell-based; details: rat calvaria cultures (RC); 10 μg/ml to 100 μg/ml; 48 hr exposure
Description: as §1, §2, §3

[8] = system: bovine chondrocytes; assay: [3H] thymidine incorporation assay, bovine primary chondrocyte cultures; format: cell-based
Description: as §4

NGLPGPIGP* (NGLPGPIG[Hyp]) [BCSP1, P* is hydroxyproline]
specific activity of alkaline phosphatase ([1]; further experimentation, not shown, culture not specified): increase in specific activity | alkaline phosphatase over control (vehicle) ([1]; rat bone marrow cultures (RBM), 1 μg/ml to 100 μg/ml, 48 hr exposure): dose dependent response | bone size ([2]; treated tibia): increase in bone size | number of bone nodules formed ([3]; 1 ng/ml and 10 ng/ml range): slight increase | number of bone nodules formed ([3]; 1 ng/ml to 100 μg/ml): minimal changes | total mineralized bone nodule area (size of nodules) ([3]; 1 ng/ml to 100 μg/ml, dose dependent): significantly increased | osteoblast proliferation [4]: statistically significant increase | increase in DNA synthesis ([5]; rat bone marrow osteoblasts, up to 100 μg/ml): ≤ 75% | osteoblast proliferation ([5]; to 100 μg/ml): dose response increase | proliferation of chondrocyte cells ([6]; 10, 20 and 40 ng/ml, 48 hrs): dose dependent increase | effect on proliferation ([6]; doses in the nanogram range): up to 3 fold | alkaline phosphatase over control (vehicle) [7]: dose dependent response | proliferation of chondrocyte cells ([8]; 10, 20 and 40 ng/ml, 48 hrs): dose dependent increase | effect on proliferation ([8]; doses in the nanogram range): up to 3 fold

PGPIG [BCSP7]
changes in BMC (bone mineral content) [2]: Significant changes | changes in BMD (bone mineral density) [2]: Significant changes

PGPIGP [BCSP9]
changes in BMC (bone mineral content) [2]: Significant changes | changes in BMD (bone mineral density) [2]: Significant changes

PGPIGPPGPR [BCSP10]
changes in BMC (bone mineral content) [2]: Significant changes | changes in BMD (bone mineral density) [2]: Significant changes
